{
  "source": "patent US9861590B2",
  "about": "“Self-supporting films for delivery of therapeutic agents” (priority 2010, dated 2018)",
  "test": "Saturation and payload limits for dip coating bupivacaine HCl solution on polyester mesh (FIG. 8)",
  "type": "physicochemical",
  "settings": "Parietex monofilament polyester mesh without polymer film",
  "description": "Further, it is believed that spraying films on a medical device (e.g., mesh) compared to other conventional methods, such as dip coating, provides increased loading of the therapeutic agent.\nMore particularly FIG. 8 illustrates the loading limits for a polyester mesh (Parietex™ monofilament mesh) without a polymer film.",
  "note": "Counter-ions that a name gives are not always drawn.",
  "data": [
    {"smiles": "CCCCN1CCCCC1C(=O)Nc1c(C)cccc1C", "note": "(centres unmarked) [bupivacaine HCl, bupivacaine hydrochloride]", "values": [
      {"measurement": "saturation and payload limits for dip coating solution", "setting": "solution in MeOH", "value": 12, "unit": "% w/v"},
      {"measurement": "saturation and payload limits for dip coating solution", "setting": "solution in water", "value": 5, "unit": "% w/v"}
    ]}
  ]
}
